Results as given in patent US11498920B2, “4-(1H-imidazol-5-yl)-1H-pyrrolo[2, 3-b] pyridines for use in the treatment of leukaemias, lymphomas and solid tumors” (MASARYKOVA UNIVERZITA, priority 2018, dated 2022).

How the values were obtained:
Assay type in all cases: cell-based
WSU-NHL = test: Cytotoxicity on panel of cell lines, TMRE viability (Example II.2); details: Homo sapiens, 24 hours, mean, control = 1, read-out: cell viability relative to control, WSU-NHL (FL)
Experimental: (§1) The leukemia and lymphoma-derived cell lines [MEC-1 cell line (derived from chronic lymphocytic leukemia—CLL), Nalm-16 (acute lymphocytic leukemia—ALL), K562 (chronic myeloid leukemia—CML), HL-60 (acute myeloid leukemia—AML), Maver-1 and Mino (mantle cell lymphoma—MCL), BL-41 (Burkitt lymphoma—BL), WSU-NHL (follicular lymphoma—FL), SUDHL (diffuse large B-cell lymphoma—DLBCL)], primary CLL cells and nonmalignant control primary cells were cultured in suspension in flasks under the following conditions: RPMI 1640 medium (Hyclone) supplemented with 10% fetal bovine serum (FBS, Gibco) and 1% penicillin/streptomycin (Life Technologies), 37° C., 5% CO2 and 95% relative humidity, with optimal culture cell density 5×10^6 cells/mL in case of primary cells and 0.5-1×10^6 cells/mL in case of cell lines. The adherent cell lines [A375 (derived from malignant melanoma), MDA-MB-231 and MCF-7 (breast cancer), MIA-PA-CA and PANC1 (pancreatic cancer), PC3 (prostate cancer), OVCAR4 (ovarian cancer) and HEPG2 (hepatocellular carcinoma)] were cultured on plates under the same conditions using RPMI1640 or DMEM medium (Gibco) according to instructions provided by the distributor (DSMZ/ATCC).
(§2) The tested cell lines were incubated with inhibitors at 30 μM concentration or corresponding amount of solvent (DMSO, Sigma Aldrich) in standard culture conditions, seeded as 10^5 cells/500 μl per well in a 24-well plate. Experiments were performed in technical duplicates and 2-3 biological repetitions per cell line. Viability of cells was assessed after 24 hours.
(§3) Relative values are presented as a mean value, showing ratio to the effect of control. Relative value <1=lower viability than control condition.

K562 = test: as above; details: Homo sapiens, 24 hours, mean, control = 1, read-out: cell viability relative to control, K562 (CML)
Experimental: as §1, §2, §3

MDA-MB-231 = test: as above; details: Homo sapiens, 24 hours, mean, control = 1, read-out: cell viability relative to control, MDA-MB-231 (breast cancer)
Experimental: as §1, §2, §3

BL-41 = test: as above; details: Homo sapiens, 24 hours, mean, control = 1, read-out: cell viability relative to control, BL-41 (BL)
Experimental: as §1, §2, §3

HL60 = test: as above; details: Homo sapiens, HL-60, 24 hours, mean, control = 1, read-out: cell viability relative to control, HL60 (AML)
Experimental: as §1, §2, §3

Mino = test: as above; details: Homo sapiens, 24 hours, mean, control = 1, read-out: cell viability relative to control, Mino (MCL)
Experimental: as §1, §2, §3

PC3 = test: as above; details: Homo sapiens, PC-3, 24 hours, mean, control = 1, read-out: cell viability relative to control, PC3 (prostate cancer)
Experimental: as §1, §2, §3

primary CLL = test: as above; details: Homo sapiens, 24 hours, mean, control = 1, read-out: cell viability relative to control, primary CLL
Experimental: as §1, §2, §3

HEPG2 = test: as above; details: Homo sapiens, 24 hours, mean, control = 1, read-out: cell viability relative to control, HEPG2 (hepatocellular carcinoma)
Experimental: as §1, §2, §3

SUDHL = test: as above; details: 24 hours, mean, control = 1, read-out: cell viability relative to control, SUDHL (DLBCL)
Experimental: as §1, §2, §3

Maver1 = test: as above; details: Homo sapiens, 24 hours, mean, control = 1, read-out: cell viability relative to control, Maver1 (MCL)
Experimental: as §1, §2, §3

A375 = test: as above; details: Homo sapiens, A-375, 24 hours, mean, control = 1, read-out: cell viability relative to control, A375 (melanoma)
Experimental: as §1, §2, §3

PANC1 = test: as above; details: Homo sapiens, PANC-1, 24 hours, mean, control = 1, read-out: cell viability relative to control, PANC1 (pancreatic cancer)
Experimental: as §1, §2, §3

MEC-1 = test: as above; details: Homo sapiens, MEC1, 24 hours, mean, control = 1, read-out: cell viability relative to control, MEC-1 (CLL)
Experimental: as §1, §2, §3

MIA-PA-CA = test: as above; details: Homo sapiens, MIA PaCa-2, 24 hours, mean, control = 1, read-out: cell viability relative to control, MIA-PA-CA (pancreatic cancer)
Experimental: as §1, §2, §3

Nalm16 = test: as above; details: 24 hours, mean, control = 1, read-out: cell viability relative to control, Nalm16 (ALL)
Experimental: as §1, §2, §3

OVCAR4 = test: as above; details: Homo sapiens, OVCAR-4, 24 hours, mean, control = 1, read-out: cell viability relative to control, OVCAR4 (ovarian cancer)
Experimental: as §1, §2, §3

primary CLL cells = test: Cytotoxicity, TMRE flow cytometry viability, primary CLL cells (Example II.1); details: Homo sapiens, CLL cell, 6 hours, TMRE positive cells normalized to control, ratio to PF670462, <1 = higher cytotoxicity than PF670462, read-out: Viability of cells, Compound of formula I (100 μM), relative to PF670462 (100 μM), CLL primary cells
[1] = system: Maver-1 cells (mantle cell lymphoma); test: Cytotoxicity, TMRE flow cytometry viability, Maver-1 cells (Example II.1); details: Homo sapiens, Maver1, 24 hours, TMRE positive cells normalized to control, ratio to PF670462, <1 = higher cytotoxicity than PF670462, read-out: Viability of cells, Compound of formula I (100 μM), relative to PF670462 (100 μM), Maver-1 cells (mantle cell lymphoma)
MCF-7 = test: Cytotoxicity on panel of cell lines, TMRE viability (Example II.2); details: Homo sapiens, MCF7, 24 hours, mean, control = 1, read-out: cell viability relative to control, MCF-7 (breast cancer)
Experimental: as §1, §2, §3

SMILES | viability at 30 µM (WSU-NHL) | viability at 30 µM (K562) | viability at 30 µM (MDA-MB-231) | viability at 30 µM (BL-41) | viability at 30 µM (HL60) | viability at 30 µM (Mino) | viability at 30 µM (PC3) | viability at 30 µM (primary CLL) | viability at 30 µM (HEPG2) | viability at 30 µM (SUDHL) | viability at 30 µM (Maver1) | viability at 30 µM (A375) | viability at 30 µM (PANC1) | viability at 30 µM (MEC-1) | viability at 30 µM (MIA-PA-CA) | viability at 30 µM (Nalm16) | viability at 30 µM (OVCAR4) | viability at 100 µM (primary CLL cells) | viability at 100 µM [1] | viability at 30 µM (MCF-7)
Cc1cc2c(-c3c(-c4ccc(F)cc4)ncn3C3CCCCC3)ccnc2[nH]1 [Preparative Example 39, 4-(1-cyclohexyl-4-(4-fluorophenyl)-1H-imidazol-5-yl)-2-methyl-1H-pyrrolo[2,3-b]pyridine] | 88% | 73% | 71% | 10% | 62% | 26% | 29% | 48% | 55% | 24% | 2% | 16% | 44% | 22% | 56% | 6% | 42% | 10% | 2% | –
Cc1nc(-c2ccc(F)cc2)c(-c2ccnc3[nH]ccc23)n1C1CCCCC1 [Preparative Example 61, 4-(1-cyclohexyl-4-(4-fluorophenyl)-2-methyl-1H-imidazol-5-yl)-1H-pyrrolo[2,3-b]pyridine] | – | 80% | 46% | 22% | 63% | 28% | 71% | 70% | 60% | 24% | 52% | 20% | 81% | 41% | 58% | 6% | 77% | 35% | 2% | 39%
Fc1ccc(-c2nc(I)n(C3CCCCC3)c2-c2ccnc3[nH]ccc23)cc1 [Preparative Example 95, 4-(1-cyclohexyl-4-(4-fluorophenyl)-2-iodo-1H-imidazol-5-yl)-1H-pyrrolo[2,3-b]pyridine] | 0% | 1% | 2% | 0% | 2% | 0% | 1% | 2% | 5% | 0% | 1% | 16% | 10% | 0% | 1% | – | 7% | 2% | 1% | 1%
C=CS(=O)(=O)N[C@H]1CC[C@@H](n2cnc(-c3ccc(F)cc3)c2-c2ccnc3[nH]ccc23)CC1 [Preparative Example 97] | 2% | – | 53% | 11% | 68% | 0% | 74% | 51% | 39% | 68% | 1% | 17% | 50% | 1% | 23% | – | 78% | 18% | 1% | 28%
Fc1ccc(-c2ncn(Cc3ccccc3)c2-c2ccnc3[nH]ccc23)cc1Cl [Preparative Example 140, 4-(1-benzyl-4-(3-chloro-4-fluorophenyl)-1H-imidazol-5-yl)-1H-pyrrolo[2,3-b]pyridine] | 56% | – | 86% | 44% | 78% | 3% | 67% | 60% | 22% | 11% | 7% | 80% | 77% | 67% | 29% | – | 87% | 1% | 0% | 43%
